Test results reported in patent US20210147455A1 (SHAANXI SYNTHETIC PHARMACEUTICAL CO., LTD., priority 2018, published 2021).
≈ marks a conversion by molar mass, not a printed value. Where “and” joins values, the source holds several entries; their conditions need not be identical. Equal entries are not always repeated. Where two headings read alike, the source gives them in different places.

What was measured:
[1] = Stability experiments under 25° C.±2° C. and 65% R.H±5% R.H; details: 25° C./65% R.H
From the text: • 1. […] The results are shown in detail in the following table.

[2] = Stability experiments under 40° C.±2° C. and 75% R.H±5% R.H (accelerated test); assay type: physicochemical; details: 40° C./75% R.H
[3] = Hygroscopicity study (Chinese Pharmacopoeia 2015, 9103); assay type: physicochemical; details: for Hygroscopic weight gain: 25° C.±1° C., saturated ammonium chloride solution, 24 hours; for Conclusion (hygroscopicity): after 24 hours
Experimental: Test method: • 1. A dried glass weighing bottle with stopper (having an outer diameter of 50 mm and a height of 15 mm) was placed in a thermostatic drier (a saturated ammonium chloride solution was placed on the lower part of the thermostatic drier) at an appropriate temperature of 25° C.±1° C. on the day earlier before the test, and the weight (m1) of weighing bottle was precisely weighed. • 2. An appropriate amount of test sample was taken and spread in the weighing bottle, and the thickness of the test sample was controlled to about 1 mm, and the weight (m2) was precisely weighed. • 3. The weighing bottle was opened and was placed, together with the bottle cap, under the above mentioned constant temperature and humidity condition for 24 hours. • 4. The weighing bottle was capped and precisely weighed to obtain the weight (m3).
Description of hygroscopicity characterization and delimitation of hygroscopicity weight gain: Deliquescence: enough moisture is absorbed to form a liquid. […] Slightly hygroscopic: hygroscopic weight gain is less than 2% but not less than 0.2%. Not or hardly hygroscopic: hygroscopic weight gain is less than 0.2%.

[4] = day 5, High temperature of 40° C.
[5] = day 10, High temperature of 40° C.
[6] = month 3, Phosphate Monopotassium Salt
[7] = month 6, Phosphate Monopotassium Salt
[8] = month 9, Phosphate Monopotassium Salt
[9] = month 12, Phosphate Monopotassium Salt
[10] = month 24, Phosphate Monopotassium Salt

For `CC[C@@H]([C@H](C)OP(=O)(O)O)n1ncn(-c2ccc(N3CCN(c4ccc(OC[C@@H]5CO[C@@](Cn6cncn6)(c6ccc(F)cc6F)C5)cc4)CC3)cc2)c1=O` [Example 3, Posaconazole Phosphate Monocholinate Pentahydrate], the Content ([1]; month 0) was 99.37%, the Description ([1]; month 0) was “White” and the Related substance ([1]; month 0) was 0.13%. The Content ([1]; month 3) was 99.87%, the Description ([1]; month 3) was “White” and the Related substance ([1]; month 3) was 0.13%. For the same molecule, the Content ([1]; month 6) was 99.87%, the Description ([1]; month 6) was “White” and the Related substance ([1]; month 6) was 0.13%. For the same molecule, the Content ([1]; month 9) was 99.84%, the Description ([1]; month 9) was “White” and the Related substance ([1]; month 9) was 0.16%. For the same molecule, the Content ([1]; month 12) was 99.84%, the Description ([1]; month 12) was “White” and the Related substance ([1]; month 12) was 0.16%. The Content ([1]; month 24) was 99.79%, the Description ([1]; month 24) was “White” and the Related substance ([1]; month 24) was 0.21%. For the same molecule, the Content ([2]; month 0) was 99.87%, the Description ([2]; month 0) was “White” and the Related substance ([2]; month 0) was 0.13%. The Content ([2]; month 1) was 99.87%, the Description ([2]; month 1) was “White” and the Related substance ([2]; month 1) was 0.13%. For the same molecule, the Content ([2]; month 2) was 99.87%, the Description ([2]; month 2) was “White” and the Related substance ([2]; month 2) was 0.13%. For the same molecule, the Content ([2]; month 3) was 99.86%, the Description ([2]; month 3) was “White” and the Related substance ([2]; month 3) was 0.14%. For the same molecule, the Content ([2]; month 6) was 99.85%, the Description ([2]; month 6) was “White” and the Related substance ([2]; month 6) was 0.15%. The Hygroscopic weight gain [3] was 0.15%, the “Conclusion (hygroscopicity)” value [3] was “No hygroscopicity” and the Content (day 0) was 99.87%. For the same molecule, the Description (day 0) was “White”, the Related substance (day 0) was 0.13% and the Content (day 5, High humidity of 92.5%) was 99.86%. For the same molecule, the Description (day 5, High humidity of 92.5%) was “White”, the Related substance (day 5, High humidity of 92.5%) was 0.14% and the Content [4] was 99.87%. The Description [4] was “White”, the Related substance [4] was 0.13% and the Content (day 5, Illumination of 4500LX) was 99.87%. For the same molecule, the Description (day 5, Illumination of 4500LX) was “White”, the Related substance (day 5, Illumination of 4500LX) was 0.13% and the Content (day 10, High humidity of 92.5%) was 99.86%. The Description (day 10, High humidity of 92.5%) was “White”, the Related substance (day 10, High humidity of 92.5%) was 0.14% and the Content [5] was 99.85%. The Description [5] was “White”, the Related substance [5] was 0.15% and the Content (day 10, Illumination of 4500LX) was 99.86%. For the same molecule, the Description (day 10, Illumination of 4500LX) was “White” and the Related substance (day 10, Illumination of 4500LX) was 0.14%.

Work on `CC[C@@H]([C@H](C)O)n1ncn(-c2ccc(N3CCN(c4ccc(OC[C@@H]5CO[C@@](Cn6cncn6)(c6ccc(F)cc6F)C5)cc4)CC3)cc2)c1=O` [Posaconazole] yielded a solubility (Solubility study; isopropanol, organic solvent or mixture) of 100 µg/mL (≈ 143 µM), a solubility (Solubility study; methanol, organic solvent or mixture) of 60 µg/mL (≈ 85.6 µM) and a solubility (Solubility study; water) of 50 µg/mL (≈ 71.3 µM).

In the case of “Posaconazole Phosphate Monopotassium Salt Trihydrate [Comparative Example 6]”, the Content ([1]; month 0) is reported as 99.87%, the Description ([1]; month 0) is reported as “White” and the Related substance ([1]; month 0) is reported as 0.13%. The Content ([1]; month 3) was 99.78%, the Description ([1]; month 3) was “White” and the Related substance ([1]; month 3) was 0.22%. The Content ([1]; month 6) was 99.70%, the Description ([1]; month 6) was “White” and the Related substance ([1]; month 6) was 0.30%. The Content ([1]; month 9) was 99.59%, the Description ([1]; month 9) was “White” and the Related substance ([1]; month 9) was 0.41%. For the same molecule, the Content ([1]; month 12) was 99.48%, the Description ([1]; month 12) was “White” and the Related substance ([1]; month 12) was 0.52%. For the same molecule, the Content ([1]; month 24) was 99.00%, the Description ([1]; month 24) was “White” and the Related substance ([1]; month 24) was 1.00%. For the same molecule, the Content ([2]; month 0) was 99.87%, the Description ([2]; month 0) was “White” and the Related substance ([2]; month 0) was 0.13%. For the same molecule, the Content ([2]; month 1) was 99.76%, the Description ([2]; month 1) was “White” and the Related substance ([2]; month 1) was 0.24%. The Content ([2]; month 2) was 99.65%, the Description ([2]; month 2) was “White” and the Related substance ([2]; month 2) was 0.35%. For the same molecule, the Content ([2]; month 3) was 99.49%, the Description ([2]; month 3) was “White” and the Related substance ([2]; month 3) was 0.51%. For the same molecule, the Content ([2]; month 6) was 99.38%, the Description ([2]; month 6) was “White” and the Related substance ([2]; month 6) was 0.62%. For the same molecule, the Hygroscopic weight gain [3] was 1.95% and the “Conclusion (hygroscopicity)” value [3] was “Slight hygroscopicity”.

With “Posaconazole Phosphate Monopotassium Salt [Comparative Example 3]” the Content ([1]; month 0) was 99.87%, the Description ([1]; month 0) was “White” and the Related substance ([1]; month 0) was 0.13%. The Description ([1]; month 3) was “White”, the Content [1, 6] was 99.73% and 99.80% and the Related substance [1, 6] was 0.27% and 0.20%. The Description ([1]; month 6) was “White”, the Content [1, 7] was 99.67% and 99.68% and the Related substance [1, 7] was 0.37% and 0.32%. For the same molecule, the Description ([1]; month 9) was “White”, the Content [1, 8] was 99.55% and 99.59% and the Related substance [1, 8] was 0.45% and 0.41%. The Description ([1]; month 12) was “White”, the Content [1, 9] was 99.41% and 99.48% and the Related substance [1, 9] was 0.59% and 0.52%. For the same molecule, the Description ([1]; month 24) was “White”, the Content [1, 10] was 98.88% and 99.03% and the Related substance [1, 10] was 1.12% and 0.97%. For the same molecule, the Content ([2]; month 0) was 99.87%, the Description ([2]; month 0) was “White” and the Related substance ([2]; month 0) was 0.13%. The Content ([2]; month 1) was 99.75%, the Description ([2]; month 1) was “White” and the Related substance ([2]; month 1) was 0.25%. The Content ([2]; month 2) was 99.64%, the Description ([2]; month 2) was “White” and the Related substance ([2]; month 2) was 0.36%. For the same molecule, the Content ([2]; month 3) was 99.51%, the Description ([2]; month 3) was “White” and the Related substance ([2]; month 3) was 0.49%. For the same molecule, the Content ([2]; month 6) was 99.38%, the Description ([2]; month 6) was “White” and the Related substance ([2]; month 6) was 0.62%. For the same molecule, the Hygroscopic weight gain [3] was 1.56% and the “Conclusion (hygroscopicity)” value [3] was “Slight hygroscopicity”.

With “Posaconazole Phosphate Monosodium Salt Trihydrate [Comparative Example 7]” the Content ([1]; month 0) was 99.87%, the Description ([1]; month 0) was “White” and the Related substance ([1]; month 0) was 0.18%. The Content ([1]; month 3) was 99.78%, the Description ([1]; month 3) was “White” and the Related substance ([1]; month 3) was 0.22%. For the same molecule, the Content ([1]; month 6) was 99.71%, the Description ([1]; month 6) was “White” and the Related substance ([1]; month 6) was 0.29%. The Content ([1]; month 9) was 99.61%, the Description ([1]; month 9) was “White” and the Related substance ([1]; month 9) was 0.39%. The Content ([1]; month 12) was 99.51%, the Description ([1]; month 12) was “White” and the Related substance ([1]; month 12) was 0.49%. For the same molecule, the Content ([1]; month 24) was 98.98%, the Description ([1]; month 24) was “White” and the Related substance ([1]; month 24) was 1.02%. For the same molecule, the Content ([2]; month 0) was 99.87%, the Description ([2]; month 0) was “White” and the Related substance ([2]; month 0) was 0.13%. For the same molecule, the Content ([2]; month 1) was 99.77%, the Description ([2]; month 1) was “White” and the Related substance ([2]; month 1) was 0.23%. The Content ([2]; month 2) was 99.63%, the Description ([2]; month 2) was “White” and the Related substance ([2]; month 2) was 0.37%. The Content ([2]; month 3) was 99.50%, the Description ([2]; month 3) was “White” and the Related substance ([2]; month 3) was 0.50%. The Content ([2]; month 6) was 99.37%, the Description ([2]; month 6) was “White” and the Related substance ([2]; month 6) was 0.63%. For the same molecule, the Hygroscopic weight gain [3] was 1.86% and the “Conclusion (hygroscopicity)” value [3] was “Slight hygroscopicity”.
